Reference: patent US20060167115A1, “Compositions for the preservation of timber” (priority 2003, published 2006)
Where “and” joins values, the source holds several entries; their conditions need not be identical. Equal values may be shown once. Entries after “also recorded” stand apart in the source; their conditions may differ.

Key:
Coniophora puteana [1] = assay: Biological efficacy test (EN 113), agar medium; assay type: cell-based
Text: (§1) Two fungi were used: Coniophora puteana Brown rot fungus) and Poria placenta (Brown rot fungus). The preservative used was TBBA (waterborne). Seven concentrations of the preservative was used: 3.0%, 2.0%, 1.5%, 1.0%, 0.5%, 0.05%, and 0.0% (w/w), i.e. the carrier solution in the absence of the active material. All wood blocks were of Scots pine sapwood (Pinus sylvestris) with an approximate volume of 18.75 cm^3 (50 mm×25 mm×15 mm) in accordance with European standard EN 113. • Treated test specimens: 2 (fungi)×7 (preservative concentrations)×1 (preservative)×4 (replicates)=56 test blocks • Untreated test specimens (for exposure alongside treated blocks): 2 (fungi)×7 (preservative concentrations)×1 (preservative)×4 (replicates)=56 test blocks • Untreated test specimens (virulence): 2 (fungi)×6 (replicates)=12 test blocks • Treated check test specimens: 4 (replicates)×7 (preservative concentrations)×1 (preservative)=28 test blocks
(§2) After block impregnation, according to European standard EN 113, and conditioning were completed, all the blocks were sterilized using ionizing radiation according to the conditions set out in EN 113. The incubation period for the test (length of block exposure to the chosen basidiomycete fungi) was 16 weeks.
(§3) It was noted that some waterlogging of certain test and control specimens had occurred. In keeping with the EN 113 format, weight changes for particular waterlogged specimens, when these are clearly unrepresentative of a group, were not included in the mean figures presented. In addition, weight losses of unrepresentative specimens generally, were not included in the mean figures presented.

Poria placenta [2] = assay: Biological efficacy test (EN 113), agar medium; assay type: cell-based
Text: as §1, §2, §3

Coniophora puteana [3] = assay: Biological screening test (modified EN 113), wood block weight loss; assay type: cell-based; details: 7 weeks exposure
Protocol: (§4) The following fungi were employed in this test: Coniophora puteana (Brown rot fungus) and Poria placenta (Brown rot fungus). The following preservative was tested: TBBA (in ethanol carrier). Five concentrations of the preservative were used: 2%, 1%, 0.1%, 0.05% and 0.01% (w/w).
(§5) All wood blocks employed in the examples to follow were of Scots pine sapwood (Pinus sylvestris) with a volume of 1 cm^3 (10 mm×10 mm×10 mm). Five replicate test specimens were used for each concentration of the preservative. Six virulence control specimens for each fungus were used to establish the wood decay capability of the fungi. Other test blocks were used to establish: the virulence of the test fungi; the absence of a preserving effect of the ethanol carrier; and weight changes of test blocks for reasons other than decay • Treated test specimens: 2 (fungi)×5 (preservative concentrations)×1 (preservative)×5 (replicates)=50 test blocks • Untreated test specimens (for exposure alongside treated blocks): one for each treated block=50 test blocks • Virulence control specimens: 2 (fungi)×6 (replicates)=12 test blocks • Ethanol carrier test specimens: 2 (fungi)×5 (replicates)=10 test blocks • Treated check test specimens: 1 (preservatives)×5 (concentrations)×5 (replicates)=25
(§6) All timber specimens, where applicable, were treated with preservative (vacuum impregnation) and sterilized (ionizing radiation) prior to test, in accordance with European Standard EN 113. The incubation period for the test (length of block exposure to the chosen basidiomycete fungi) was 48 days or just under 7 weeks.
(§7) Weight changes for particular waterlogged specimens, when these are clearly unrepresentative of a group, are not included in the mean figures presented.
(§8) Tables I and II show weight losses (% of initial dry weight) of TBBA treated and untreated control test specimens after 7 weeks exposure to Coniophora puteana and Poria placenta respectively.
(§9) In the tables, “retention” refers to the quantity of preservative that enters the wood per cubic meter of treated wood. It's value is determined by weighing the block of wood before and after it is treated with preservative, taking the difference between the two weights, and dividing the difference in weight by the volume of the block.

Poria placenta [4] = assay: as above; assay type: cell-based; details: 7 weeks exposure
Protocol: as §4, §5, §6, §7, §8, §9

wood decay = assay: Wood decay field stake test (modified AWPA E7-01), ground contact; details: TBBA added to ethanol, over all concentrations; groups of 10 stakes; seven months in ground
Protocol: The preservative value of TBBA in terms of preventing wood decay was examined by ground contact exposure of TBBA treated stakes at a test plot in Gainesville, Fla. The test detail was essentially based on the “STANDARD METHOD OF EVALUATING WOOD PRESERVATIVES BY FIELD TESTS WITH STAKES”, Standard E7-01, promulgated by the American Wood Preservers Association (AWPA).
All the test stakes were of southern pine sapwood and were vacuum impregnated with TBBA. The TBBA was dissolved in one of four solutions: ethanol, P9 type A oil, and in two micro-emulsions: • emulsion #1: TBBA 20.81%, Butyl Lactate 31.02%, NP-15 22.33% and water 25.83% • emulsion #2: TBBA 20.05%, Butyl Lactate 29.88%, NP-15 21.51% and water 28.55%
Each of the emulsions was diluted so that the corresponding concentration (w/v) of TBBA in all of the solutions was: 1.72%, 3.4%, 5.1%, 6.8% and 8.5%.
Two groups of control stakes were also installed in the test plot. One group was vacuum impregnated with pure ethanol. The second group was untreated.
The groups of stakes for each treatment were installed in the test plot, left for seven months, and evaluated according to the procedure set-out in AWPA Standard E7-01. […]

[5] = TBBA 0.01% w/w in ethanol carrier, retention 0.1 kg/m^3
[6] = TBBA 0.05% w/w in ethanol carrier, retention 0.4 kg/m^3
[7] = TBBA 0.1% w/w in ethanol carrier, retention 0.7 kg/m^3

SMILES: CC(C)(c1cc(Br)c(O)c(Br)c1)c1cc(Br)c(O)c(Br)c1 [TBBA, Tetrabromobisphenol A]
- Corrected mean loss in mass (%) (Coniophora puteana [1]; TBBA waterborne 0.05% w/w, retention 0.39 kg/m^3, 16 weeks): 46.82 (6.31) %
- Corrected mean loss in mass (%) (Coniophora puteana [1]; TBBA waterborne 0.5% w/w, retention 3.78 kg/m^3, 16 weeks): 34.87 (13.21) %
- Corrected mean loss in mass (%) (Coniophora puteana [1]; TBBA waterborne 1.0% w/w, retention 7.30 kg/m^3, 16 weeks): 37.27 (—) %
- Corrected mean loss in mass (%) (Coniophora puteana [1]; TBBA waterborne 1.5% w/w, retention 11.12 kg/m^3, 16 weeks): −1.30 (1.16) %
- Corrected mean loss in mass (%) (Coniophora puteana [1]; TBBA waterborne 2.0% w/w, retention 15.24 kg/m^3, 16 weeks): −6.79 (0.34) %
- Corrected mean loss in mass (%) (Coniophora puteana [1]; TBBA waterborne 3.0% w/w, retention 23.65 kg/m^3, 16 weeks): −1.06 (0.69) %
- Corrected mean loss in mass (%) (Poria placenta [2]; TBBA waterborne 0.05% w/w, retention 0.25 kg/m^3, 16 weeks): 30.94 (2.90) %
- Corrected mean loss in mass (%) (Poria placenta [2]; TBBA waterborne 0.5% w/w, retention 3.79 kg/m^3, 16 weeks): 7.94 (19.35) %
- Corrected mean loss in mass (%) (Poria placenta [2]; TBBA waterborne 1.0% w/w, retention 7.71 kg/m^3, 16 weeks): 6.17 (14.50) %
- Corrected mean loss in mass (%) (Poria placenta [2]; TBBA waterborne 1.5% w/w, retention 11.81 kg/m^3, 16 weeks): −2.19 (070) %
- Corrected mean loss in mass (%) (Poria placenta [2]; TBBA waterborne 2.0% w/w, retention 12.84 kg/m^3, 16 weeks): −6.21 (0.44) %
- Corrected mean loss in mass (%) (Poria placenta [2]; TBBA waterborne 3.0% w/w, retention 20.70 kg/m^3, 16 weeks): −1.67 (0.22) %
- Corrected mean loss in mass (%) (Coniophora puteana [3]; [5]): 39.71(2.2) (4) %
- Corrected mean loss in mass (%) (Coniophora puteana [3]; [6]): 40.63 (7.59) (5) %
- Corrected mean loss in mass (%) (Coniophora puteana [3]; [7]): 24.80 (—) (1) %
- Corrected mean loss in mass (%) (Coniophora puteana [3]; TBBA 1% w/w in ethanol carrier, retention 6.7 kg/m^3): 2.39% and 2.39 (1.56) (5) %
- Corrected mean loss in mass (%) (Coniophora puteana [3]; TBBA 2% w/w in ethanol carrier, retention 14.1 kg/m^3): no weight loss; also recorded: No mass loss
- Corrected mean loss in mass (%) (Poria placenta [4]; [5]): 0.88 (0.29) (5) %
- Corrected mean loss in mass (%) (Poria placenta [4]; [6]): 4.84 (0.32) (5) %
- Corrected mean loss in mass (%) (Poria placenta [4]; [7]): 26.67% and 26.67(11.04) %
- Corrected mean loss in mass (%) (Poria placenta [4]; TBBA 1% w/w in ethanol carrier, retention 6.9 kg/m^3): no weight loss; also recorded: No mass loss
- Corrected mean loss in mass (%) (Poria placenta [4]; TBBA 2% w/w in ethanol carrier, retention 14.2 kg/m^3): no weight loss
- Instances of Grade No. 10 (count per group) (wood decay): 8-10
